Results published in patent US20250213558A1, “T-TYPE CALCIUM CHANNEL MODULATORS COMPRISING A PIPERAZINE OR 1,4-DIAZEPANE CORE AND METHODS OF USE THEREOF” (Praxis Precision Medicines, Inc., priority 2022, published 2025).

Biological target: T1, Human Cav3.1 calcium channel (Homo sapiens, UniProt O43497)
T1 construct: expressed in transfected cells; host or cells: HEK-293 natClytin/TASK1+Cav3.1 cell line
T1 sequence (O43497 whole entry): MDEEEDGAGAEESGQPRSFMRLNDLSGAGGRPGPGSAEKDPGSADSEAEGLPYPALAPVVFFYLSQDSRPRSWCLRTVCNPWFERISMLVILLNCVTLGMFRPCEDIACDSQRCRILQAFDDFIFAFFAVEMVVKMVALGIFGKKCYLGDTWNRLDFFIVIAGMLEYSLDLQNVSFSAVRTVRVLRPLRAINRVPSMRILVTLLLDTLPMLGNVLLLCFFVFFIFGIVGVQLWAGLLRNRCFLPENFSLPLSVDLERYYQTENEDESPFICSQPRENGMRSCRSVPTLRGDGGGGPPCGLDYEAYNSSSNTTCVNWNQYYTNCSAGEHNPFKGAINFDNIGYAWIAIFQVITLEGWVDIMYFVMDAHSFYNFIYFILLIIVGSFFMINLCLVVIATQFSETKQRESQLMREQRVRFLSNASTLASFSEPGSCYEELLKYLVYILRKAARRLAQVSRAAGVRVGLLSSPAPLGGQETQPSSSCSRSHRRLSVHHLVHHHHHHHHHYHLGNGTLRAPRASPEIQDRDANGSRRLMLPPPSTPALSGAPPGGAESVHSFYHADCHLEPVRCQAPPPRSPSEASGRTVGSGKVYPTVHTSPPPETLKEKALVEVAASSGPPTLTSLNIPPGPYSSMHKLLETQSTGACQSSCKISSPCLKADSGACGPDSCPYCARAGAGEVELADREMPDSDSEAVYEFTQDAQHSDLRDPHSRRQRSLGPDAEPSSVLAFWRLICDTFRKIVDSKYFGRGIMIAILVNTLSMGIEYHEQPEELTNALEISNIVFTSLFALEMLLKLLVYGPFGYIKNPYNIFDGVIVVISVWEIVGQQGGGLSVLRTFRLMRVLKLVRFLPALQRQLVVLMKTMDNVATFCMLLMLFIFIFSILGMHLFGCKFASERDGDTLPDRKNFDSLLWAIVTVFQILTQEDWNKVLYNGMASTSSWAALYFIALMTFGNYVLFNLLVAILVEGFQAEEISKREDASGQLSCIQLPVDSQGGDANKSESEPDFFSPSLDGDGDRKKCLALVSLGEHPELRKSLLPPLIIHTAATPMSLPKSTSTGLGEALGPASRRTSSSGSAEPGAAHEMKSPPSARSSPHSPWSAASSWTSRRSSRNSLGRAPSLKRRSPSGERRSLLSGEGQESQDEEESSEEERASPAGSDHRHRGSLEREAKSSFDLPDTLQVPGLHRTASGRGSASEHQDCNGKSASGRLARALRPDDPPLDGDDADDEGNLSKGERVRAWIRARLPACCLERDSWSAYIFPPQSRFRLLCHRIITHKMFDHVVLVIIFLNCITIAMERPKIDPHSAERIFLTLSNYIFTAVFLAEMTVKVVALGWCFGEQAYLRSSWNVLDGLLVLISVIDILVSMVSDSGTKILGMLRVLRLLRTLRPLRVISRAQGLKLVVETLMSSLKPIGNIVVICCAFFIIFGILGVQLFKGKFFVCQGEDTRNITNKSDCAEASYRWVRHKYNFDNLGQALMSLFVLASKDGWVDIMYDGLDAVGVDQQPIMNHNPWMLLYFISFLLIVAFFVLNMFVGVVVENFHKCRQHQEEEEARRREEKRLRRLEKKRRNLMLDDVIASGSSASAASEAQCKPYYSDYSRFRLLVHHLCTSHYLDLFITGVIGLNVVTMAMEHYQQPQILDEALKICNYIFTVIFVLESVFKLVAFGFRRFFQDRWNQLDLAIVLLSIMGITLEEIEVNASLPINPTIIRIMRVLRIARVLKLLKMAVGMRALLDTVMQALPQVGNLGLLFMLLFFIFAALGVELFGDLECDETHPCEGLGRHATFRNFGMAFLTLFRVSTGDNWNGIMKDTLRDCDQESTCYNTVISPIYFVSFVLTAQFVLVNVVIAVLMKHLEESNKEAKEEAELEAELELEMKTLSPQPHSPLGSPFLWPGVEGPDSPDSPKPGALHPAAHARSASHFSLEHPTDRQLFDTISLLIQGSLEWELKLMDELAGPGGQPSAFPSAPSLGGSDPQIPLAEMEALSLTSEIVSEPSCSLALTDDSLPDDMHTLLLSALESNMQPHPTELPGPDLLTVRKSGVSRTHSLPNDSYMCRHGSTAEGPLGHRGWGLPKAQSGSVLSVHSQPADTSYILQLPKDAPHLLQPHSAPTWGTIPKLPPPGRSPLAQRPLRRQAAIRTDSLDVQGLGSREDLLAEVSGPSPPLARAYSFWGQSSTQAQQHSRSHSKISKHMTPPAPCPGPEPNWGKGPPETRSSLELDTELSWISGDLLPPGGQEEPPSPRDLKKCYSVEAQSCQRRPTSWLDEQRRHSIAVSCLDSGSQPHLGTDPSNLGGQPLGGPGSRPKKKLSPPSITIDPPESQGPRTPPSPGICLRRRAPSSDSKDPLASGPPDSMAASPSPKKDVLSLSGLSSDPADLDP
Assay: Human Cav3.1 calcium channel patch clamp assay (SyncroPatch 384PE; single point and IC50, voltage dependent block)
Type: cell-based
Details: voltage dependent block (VDB); HEK-293 natClytin/TASK1+Cav3.1 cell line; read-out: Cav3.1 IC50
Procedure, shortened: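 Automated whole-cell patch clamp at room temperature, cells held at −120 mV; 100 ms step to −20 mV (resting block), then 1600 ms at −65 mV and a second −20 mV step (voltage-dependent block), every 15 s. Peak currents averaged over last 3 sweeps; % inhibition relative to nickel-sensitive current.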
For `Cc1ccc(NC(=O)CN2C[C@@H]3C[C@H]2CN3CC(=O)NC(C)(C)C)cc1Cl` [Compound 362], the IC50 was 371 nM. `CC(C)(C)NC(=O)CN1CCO[C@H](CNC(=O)c2ccc(F)c(OC(F)F)c2)C1` [Compound 367] showed an IC50 of 5720 nM. For `CC(C)(C)NC(=O)CN1CC2COCC(C1)C2CC(=O)Nc1cc(F)cc(Cl)c1` (stereo not drawn) [Compound 368], the IC50 was 126 nM. In the case of `CC(C)(C)NC(=O)CN1C[C@H]2COC[C@@H](C1)[C@@H]2CNC(=O)c1cc(F)cc(Cl)c1` [Compound 369], the IC50 is reported as 499 nM. In the case of `CC(C)(C)NC(=O)CN1C[C@H]2COC[C@@H](C1)[C@H]2CNC(=O)c1cc(F)cc(Cl)c1` [Compound 370], the IC50 is reported as 1740 nM. Molecule `CC(C)(C)NC(=O)CN1C[C@H]2COC[C@@H](C1)[C@H]2CC(=O)Nc1cc(F)cc(Cl)c1` [Compound 371] has an IC50 of 1960 nM. `CC(C)(C)NC(=O)CN1C[C@H]2COC[C@@H](C1)[C@@H]2CC(=O)Nc1cc(F)cc(Cl)c1` [Compound 372] showed an IC50 of 162 nM. With `CC(C)(C)NC(=O)CN1C2CC(CC(=O)Nc3cc(F)cc(Cl)c3)CC1C2` (stereo not drawn) [Compound 373] the IC50 was 5820 nM.

Tested on: absence seizures
Assay: not given
Details: childhood absence epilepsy; at 12 months; cited from earlier work
In the case of `Nc1nnc(-c2cccc(Cl)c2Cl)c(N)n1` [Lamotrigine], the “patients in whom the seizures were completely controlled” value (shortened to “patients”) is given as 21%. In the case of `CCC1(C)CC(=O)NC1=O` (stereo not drawn) [ethosuximide], the “patients” value is given as 45%.

Same assay, conditions: childhood absence epilepsy; at 16 weeks; assessed by video-EEG recordings; cited from earlier work
In the case of `Nc1nnc(-c2cccc(Cl)c2Cl)c(N)n1` [Lamotrigine], the “patients” value is listed as 29%. For `CCC1(C)CC(=O)NC1=O` (stereo not drawn) [ethosuximide], the “patients” value is given as 53%.
